Source: PMC6018403 (Frontiers in Pharmacology, 2018)
Where two headings read alike, the source gives them in different places.

Experiment: Multi-component pharmacokinetic study of GQD, GQD-GC and single herb extracts in rats (plasma, LC/MS/MS)
Assay type: in vivo, Sprague-Dawley rats
Procedure: Male Sprague-Dawley rats (220–250 g) were used for PK study, and the details were described in Supplemental Data. All procedures were in accordance with the National Institutes of Health Guide for the Care and Use of Laboratory Animals.
For PK study of GQD and its component herbs, rats were randomly divided into six groups (n = 10 for each group) before oral administration.
All blood samples were immediately centrifuged at 6,000 rpm (4°C) for 20 min to obtain plasma. The plasma samples were stored at −80°C.
A Finnigan TSQ Quantum triple quadrupole mass spectrometer was connected to a Surveyor HPLC via ESI interface (ThermoFisher). High purity nitrogen was used as the sheath and auxiliary gas; Ultra-high purity argon was used as the collision gas (1.5 mTorr). Q1 and Q3 quadrupoles were set at unit resolution. […] The column temperature was 40°C. The mobile phase consisted of acetonitrile containing 2% (v/v) methanol (A) and water containing 0.1% (v/v) formic acid (B). […] An aliquot of 5 μL was injected for analysis. UV spectra were obtained by scanning from 200 to 400 nm. The mass spectrometer was operated in the (+)-ESI mode. The optimized parameters were as follows: sheath gas (N2), 50 arb; auxiliary gas (N2), 5 arb; spray voltage, 4.0 kV; capillary temperature, 330°C; collision energy, see Table S1. Analytes were detected in the selected reaction monitoring (SRM) mode. Data were processed by Xcalibur 2.0.7 software (ThermoFisher).
LC/MS/MS calibration and quantitation data were processed with Xcalibur 2.0.7 software (ThermoFisher). The maximal plasma concentrations (Cmax) and their time of occurrence (Tmax) were obtained directly from the measured data. Other pharmacokinetic parameters were calculated by non-compartment or compartment models using WinNonlin® software (v6.1, Pharsight). Unless otherwise stated, results were expressed as the mean ± SD. Statistical significance in differences of the means was determined by Student's t–test, with a significance level of P < 0.05.
Herbal materials and extracts.
The four component herbs, Puerariae Lobatae Radix (Ge-Gen, GG), Scutellariae Radix (Huang-Qin, HQ), Coptidis Rhizoma (Huang-Lian, HL), and Glycyrrhizae Radix et Rhizoma Praeparata cum Melle (Gan-Cao, GC) were purchased from Tianheng Pharmacy. GQD was prepared by decocting the four component herbs […]
pre-extraction of Ge-Gen using 200 mL of water for 0.5 h. The decoctions were combined, filtered, and concentrated in vacuum at 50 °C. GQD-GC was prepared using the same procedure, except that Gan-Cao was removed from the formula. Final concentration of the GQD-GC extract was equivalent to 1.0 g of the crude drugs per mL. For single herb extracts, the herbs were decocted in 8-fold volume of water for […]
Final concentrations of the extracts were 1.0 g/mL for Ge-Gen, and 0.5 g/mL for Huang-Qin, Huang-Lian and […]
For pharmacokinetic study, Male Sprague-Dawley rats (220-250 g) were obtained from the Laboratory Animal Center of Peking University Health Science Center. The […]
The rats had free access to tap water and soy-free custom diet (Ke’ao Xieli Co.). All procedures were in accordance with the National Institutes of Health Guide for the Care and Use of Laboratory Animals […]
Experimental details for the PK study
1. Preparation of internal standard solution, calibration standard solutions, and quality control solutions […]
internal standard solution. Reference standard compounds were dissolved in the internal standard solution to prepare individual stock solutions (1.0 mg/mL). These […]
each compound. The standard solution was then serially diluted to obtain calibration […]
Quality control stock solutions were prepared at three concentration levels as high QC (HQC), middle QC (MQC), and low QC (LQC), based on linear ranges of the analytes.
2.1. Sample preparation for pharmacokinetic study
The calibration standard and quality control solutions for pharmacokinetic study were […]

[1] = male, Sprague-Dawley, rat, plasma, po, 3.54 g/kg, HL (Huang-Lian) group: rats, oral extract 3.54 g/kg, plasma, read-out: AUClast
[2] = male, Sprague-Dawley, rat, plasma, po, 16.5 g/kg, GQD-GC group (GQD without Gan-Cao): rats, oral 16.5 g/kg, plasma, read-out: AUClast
[3] = male, Sprague-Dawley, rat, plasma, po, 18.9 g/kg, GQD group: rats, oral GQD extract 18.9 g/kg, plasma, read-out: AUClast
[4] = male, Sprague-Dawley, rat, plasma, po, 18.9 g/kg, GQD group: rats, oral GQD 18.9 g/kg (1.5-fold of clinical dosage), plasma, read-out: AUClast
[5] = male, Sprague-Dawley, rat, GQD group: rats, oral GQD extract 18.9 g/kg, plasma, read-out: Cmax
[6] = male, Sprague-Dawley, rat, GQD group: rats, oral GQD extract 18.9 g/kg, plasma, read-out: T1/2 (converted)
[7] = male, Sprague-Dawley, rat, GQD group: rats, oral GQD extract 18.9 g/kg, plasma, read-out: Tmax
[8] = male, Sprague-Dawley, rat, GQD-GC group (GQD without Gan-Cao): rats, oral 16.5 g/kg, plasma, read-out: Cmax
[9] = male, Sprague-Dawley, rat, GQD-GC group (GQD without Gan-Cao): rats, oral 16.5 g/kg, plasma, read-out: T1/2 (converted)
[10] = male, Sprague-Dawley, rat, GQD-GC group (GQD without Gan-Cao): rats, oral 16.5 g/kg, plasma, read-out: Tmax
[11] = male, Sprague-Dawley, rat, HL (Huang-Lian) group: rats, oral extract 3.54 g/kg, plasma, read-out: Cmax
[12] = male, Sprague-Dawley, rat, HL (Huang-Lian) group: rats, oral extract 3.54 g/kg, plasma, read-out: T1/2 (converted)
[13] = male, Sprague-Dawley, rat, HL (Huang-Lian) group: rats, oral extract 3.54 g/kg, plasma, read-out: Tmax
[14] = male, Sprague-Dawley, rat, in vivo, po, 2.36 g/kg
[15] = male, Sprague-Dawley, rat, in vivo, po, 18.9 g/kg
[16] = male, Sprague-Dawley, rat, in vivo, po, 18.9 g/kg, AUClast
[17] = male, Sprague-Dawley, rat, in vivo, po, 9.45 g/kg
[18] = male, Sprague-Dawley, rat, in vivo, po, 16.5 g/kg

Compound | AUC(0-t) [1] | AUC(0-t) [2] | AUC(0-t) [3] | AUC(0-t) [4] | Cmax [5] | half-life [6] | Tmax [7] | Cmax [8] | half-life [9] | Tmax [10] | Cmax [11] | half-life [12] | Tmax [13] | further results
COc1ccc2c(c1O)-c1c(O)c(OC)cc3c1[C@H](C2)[N+](C)(C)CC3 [Compound 19, magnoflorine] | 556 ± 224 ng·h/mL | 47.3 ± 9.31 ng·h/mL | 198 ± 74.9 ng·h/mL | > 100 ng·h/mL | 19.7 ± 5.67 ng/mL | 8.35 ± 1.26 h | 4.13 ± 1.21 h | 5.21 ± 1.2 ng/mL | 4.54 ± 1.43 h | 0.28 ± 0.13 h | 76.4 ± 23.4 ng/mL | 10.2 ± 4.34 h | 4.21 ± 3.47 h | –
COc1ccc(-c2coc3cc(O[C@@H]4O[C@H](CO)[C@@H](O)[C@H](O)[C@H]4O)ccc3c2=O)cc1 [Compound 39, ononin] | – | 187 ± 129 ng·h/mL | 500 ± 233 ng·h/mL | > 300 ng·h/mL | 34.8 ± 34.2 ng/mL | 5.73 ± 2.2 h | 0.86 ± 0.15 h | 24.1 ± 8.38 ng/mL | 2.44 ± 1.45 h | 0.74 ± 0.29 h | – | – | – | AUC(0-t) (male, Sprague-Dawley, rat, plasma, po, 9.45 g/kg, GG (Ge-Gen) group: rats, oral extract 9.45 g/kg, plasma, read-out: AUClast): 139 ± 52.4 ng·h/mL; Cmax (male, Sprague-Dawley, rat, GG (Ge-Gen) group: rats, oral extract 9.45 g/kg, plasma, read-out: Cmax): 41.2 ± 11.4 ng/mL; half-life (male, Sprague-Dawley, rat, GG (Ge-Gen) group: rats, oral extract 9.45 g/kg, plasma, read-out: T1/2 (converted)): 1.21 ± 0.24 h; Tmax (male, Sprague-Dawley, rat, GG (Ge-Gen) group: rats, oral extract 9.45 g/kg, plasma, read-out: Tmax): 1.12 ± 0.29 h; bioavailability in the GQD group compared with the Ge-Gen group (rats, oral): higher
O=C1C[C@@H](c2ccc(O[C@@H]3O[C@H](CO)[C@@H](O)[C@H](O)[C@H]3O)cc2)Oc2cc(O)ccc21 [Compound 26, liquiritin] | – | – | – | – | – | – | – | – | – | – | – | – | – | Cmax [14]: 18.6 ± 7.53 ng/mL; T1/2 [14]: 7.84 ± 0.38 h; Tmax [14]: 1.34 ± 3 h; AUC(0-t) (male, Sprague-Dawley, rat, in vivo, po, 2.36 g/kg, AUClast): 237 ± 92.4 ng·h/mL; AUClast [15]: 416.94 ± 210.31 ng·h/mL; Cmax [15]: 20.8 ± 1.86 ng/mL; Tmax [15]: 2.5 ± 4.76 h; half-life [15]: 12.1 ± 1.16 h; AUC(0-t) [16]: > 300 ng·h/mL; plasma concentrations, effect of GQD compared with Gan-Cao (rat, in vivo, po): improved
O=c1c(-c2ccc(O)cc2)coc2cc(O)ccc12 [Compound 3, daidzein] | – | – | – | – | – | – | – | – | – | – | – | – | – | Cmax [17]: 188 ± 10.4 ng/mL; half-life [17]: 5.12 ± 0.87 h; AUC(0-t) (male, Sprague-Dawley, rat, in vivo, po, 9.45 g/kg, AUClast): 2640 ± 1150 ng·h/mL; Cmax [18]: 83.5 ± 3.23 ng/mL; half-life [18]: 4.28 ± 1.47 h; AUC(0-t) (male, Sprague-Dawley, rat, in vivo, po, 16.5 g/kg, AUClast): 674 ± 604 ng·h/mL; Cmax [15]: 186 ± 36.2 ng/mL; half-life [15]: 6.23 ± 1.36 h; AUC(0-t) [16]: 3050 ± 998 ng·h/mL; Tmax (male, Sprague-Dawley, rat, in vivo, GG (Ge-Gen) group: rats, oral extract 9.45 g/kg, plasma, read-out: Tmax): 8 ± 0.14 h; Tmax (male, Sprague-Dawley, rat, in vivo, GQD group: rats, oral GQD extract 18.9 g/kg, plasma, read-out: Tmax): 8 ± 12.8 h; Tmax (male, Sprague-Dawley, rat, in vivo, GQD-GC group (GQD without Gan-Cao): rats, oral 16.5 g/kg, plasma, read-out: Tmax): 0.25 ± 0.32 h
O=C(/C=C/c1ccc(O)cc1)c1ccc(O)cc1O [Compound 28, isoliquiritigenin] | – | – | 39.2 ± 8.9 ng·h/mL | – | 2.81 ± 0.87 ng/mL | 3.55 ± 0.08 h | 5.33 ± 0.89 h | – | – | – | – | – | – | AUC(0-t) (male, Sprague-Dawley, rat, plasma, po, 2.36 g/kg, GC (Gan-Cao) group: rats, oral extract 2.36 g/kg, plasma, read-out: AUClast): 1.28 ± 0.03 ng·h/mL; Cmax (male, Sprague-Dawley, rat, GC (Gan-Cao) group: rats, oral extract 2.36 g/kg, plasma, read-out: Cmax): 1.16 ± 0.52 ng/mL; half-life (male, Sprague-Dawley, rat, GC (Gan-Cao) group: rats, oral extract 2.36 g/kg, plasma, read-out: T1/2 (converted)): 0.28 ± 0.08 h; Tmax (male, Sprague-Dawley, rat, GC (Gan-Cao) group: rats, oral extract 2.36 g/kg, plasma, read-out: Tmax): 0.41 ± 0.47 h
COc1cc2c(cc1OC)-c1cc3ccc4c(c3c[n+]1CC2)OCO4 [Compound 22, epiberberine] | 16.7 ± 9.45 ng·h/mL | 26.4 ± 11 ng·h/mL | 29.4 ± 21.3 ng·h/mL | – | 7.21 ± 3.62 ng/mL | 4.84 ± 0.13 h | 0.58 ± 0.12 h | 9.35 ± 1.71 ng/mL | 4.97 ± 0.85 h | 0.54 ± 0.17 h | 3.53 ± 0.34 ng/mL | 4.34 ± 0.18 h | 0.58 ± 0.23 h | –
COc1cc2c(cc1O)CC[n+]1cc3c(OC)c(OC)ccc3cc1-2 [Compound 23, jatrorrhizine] | 119 ± 52.4 ng·h/mL | 105 ± 34.2 ng·h/mL | 195 ± 25.7 ng·h/mL | > 100 ng·h/mL | 8.54 ± 0.05 ng/mL | 6.97 ± 1.77 h | 0.72 ± 0.11 h | 9.14 ± 0.82 ng/mL | 3.12 ± 0.13 h | 0.63 ± 0.32 h | 6.6 ± 0.59 ng/mL | 5.15 ± 1.74 h | 0.61 ± 0.11 h | AUC(0-t) (male, Sprague-Dawley, rat, plasma, po, 3.54 g/kg, Huang-Lian group: rats, oral 3.54 g/kg, plasma, read-out: AUClast): 119 ± 52.4 ng·h/mL; AUC(0-t) (male, Sprague-Dawley, rat, plasma, po, 16.5 g/kg, GQD−GC group: rats, oral 16.5 g/kg, plasma, read-out: AUClast): 105 ± 34.2 ng·h/mL; increase of AUClast in GQD group compared with the Huang-Lian group (rats, oral, GQD vs Huang-Lian): 63.6%
COc1c(O)c(O[C@@H]2O[C@H](C(=O)O)[C@@H](O)[C@H](O)[C@H]2O)cc2oc(-c3ccccc3)cc(=O)c12 [Compound 38, lateriflorein 7-O-glucuronide] | – | 599 ± 215 ng·h/mL | 700 ± 77 ng·h/mL | > 700 ng·h/mL | 48.8 ± 3.88 ng/mL | 4.33 ± 3.23 h | 0.44 ± 3.87 h | 59.4 ± 5.34 ng/mL | 2.85 ± 0.54 h | 0.34 ± 0.07 h | – | – | – | AUC(0-t) (male, Sprague-Dawley, rat, plasma, po, 3.54 g/kg, HQ (Huang-Qin) group: rats, oral extract 3.54 g/kg, plasma, read-out: AUClast): 1170 ± 342 ng·h/mL; Cmax (male, Sprague-Dawley, rat, HQ (Huang-Qin) group: rats, oral extract 3.54 g/kg, plasma, read-out: Cmax): 213 ± 34.3 ng/mL; half-life (male, Sprague-Dawley, rat, HQ (Huang-Qin) group: rats, oral extract 3.54 g/kg, plasma, read-out: T1/2 (converted)): 1.58 ± 0.14 h; Tmax (male, Sprague-Dawley, rat, HQ (Huang-Qin) group: rats, oral extract 3.54 g/kg, plasma, read-out: Tmax): 0.31 ± 0.03 h
